Structures can show the parent of a compound that is named as a salt.
Tested on: Cat Papillary Muscles
Assay: Positive Inotropic Activity in Isolated Cat Papillary Muscles
Type: cell-based
Conditions: Felis catus, control = 100 percent, read-out: Contractility of Papillary Muscle (peak response); for activity at 100 µM: Drug Concentration 10^-4 M; for activity at 10 µM: Drug Concentration 10^-5 M
Method: Positive Inotropic Activity in Isolated Cat Papillary Muscles […] A platinum hook secured one end of the muscle to an electrode mounted in the bottom of the bath, and a silk thread attached the tendon to a Statham isometric transducer. The baths contained Krebs-Henseleit solution (36° C., bubbled with 95 percent oxygen--5 percent carbon dioxide) of the following millimolar composition: NaCl, 118; KCl, 4.5; CaCl2, 2.5; KH2 PO4, 1.1; MgSO4, 1.2; NaHCO3, 25; and glucose, 11. A base-line tension of 1.5 g. was applied to each muscle. Square-wave pulses (5.0 msec. in duration, three times threshold voltage) delivered through the hook electrode and a second electrode positioned near the top of the muscle evoked 12 contractions/minute, which were recorded on a Grass polygraph. After the muscles had equilibrated for 60 minutes, the recorder gain was adjusted so that the pen deflected 10 mm. The drug was introduced in a solution of normal saline in an amount to bring the final concentration of the drug to 10^-5 or 10^-4 molar. Increases in contractility were tabulated as millimeters of pen deflection in excess of the baseline value. In each experiment the maximum contractility was measured. Test results are summarized in Table I and are expressed as percent of control (control=100 percent). Values are the average of results from 2 to 8 muscles.

`Fc1cccc(-c2nc3cnccc3[nH]2)c1` [Example 1, 2-(3-Fluorophenyl)imidazo[4,5-c]pyridine hydrochloride] showed an activity at 100 µM of 157% and an activity at 10 µM of 112%.

`Clc1cc(Cl)cc(-c2nc3cnccc3[nH]2)c1` [Example 3, 2-(3,5-Dichlorophenyl)imidazo[4,5-c]pyridine hydrochloride] was tested, and the activity at 100 µM was 146% and the activity at 10 µM was 117%.

`Fc1ccc(-c2nc3cnccc3[nH]2)cc1` [Example 5, 2-(4-Fluorophenyl)imidazo[4,5-c]pyridine hydrochloride] showed an activity at 100 µM of 163% and an activity at 10 µM of 105%.

`Fc1ccccc1-c1nc2cnccc2[nH]1` [Example 6, 2-(2-Fluorophenyl)imidazo[4,5-c]pyridine hydrochloride] showed an activity at 100 µM of 152% and an activity at 10 µM of 108%.

Work on `COc1cc(-c2nc3cnccc3[nH]2)cc(OC)c1OC` [Example 10, 2-(3,4,5-trimethoxyphenyl)imidazo[4,5-c]pyridine hydrochloride] yielded an activity at 100 µM of 150% and an activity at 10 µM of 109%.

`COc1cccc(-c2nc3cnccc3[nH]2)c1OC` [Example 11, 2-(2,3-dimethoxyphenyl)imidazo[4,5-c]pyridine hydrochloride] gave an activity at 100 µM of 90% and an activity at 10 µM of 102%.

`O=[N+]([O-])c1cccc(-c2nc3cnccc3[nH]2)c1` [Example 12, 2-(3-nitrophenyl)imidazo[4,5-c]pyridine hydrochloride] showed an activity at 100 µM of 105% and an activity at 10 µM of 102%.

With `N#Cc1ccc(-c2nc3cnccc3[nH]2)cc1` [Example 14, 2-(4-cyanophenyl)imidazo[4,5-c]pyridine hydrochloride] the activity at 100 µM was 164% and the activity at 10 µM was 112%.

In the case of `COc1cccc(-c2nc3cnccc3[nH]2)c1` [Example 16, 2-(3-methoxyphenyl)imidazo[4,5-c]pyridine hydrochloride], the activity at 100 µM is reported as 213% and the activity at 10 µM is reported as 114%.

With `CN(C)c1ccc(-c2nc3cnccc3[nH]2)cc1` [Example 17, 2-(4-dimethylaminophenyl)imidazo[4,5-c]pyridine hydrochloride] the activity at 100 µM was 175% and the activity at 10 µM was 95%.

Molecule `COc1ccccc1-c1nc2cnccc2[nH]1` [Example 18, 2-(2-methoxyphenyl)imidazo[4,5-c]pyridine hydrochloride] has an activity at 100 µM of 163% and an activity at 10 µM of 115%.

In the case of `CCCCOc1ccc(-c2nc3cnccc3[nH]2)cc1` [Example 19, 2-(4-n-butoxyphenyl)imidazo[4,5-c]pyridine hydrochloride], the activity at 100 µM is reported as 288% and the activity at 10 µM is reported as 114%.

With `COc1cc(Cl)ccc1-c1nc2cnccc2[nH]1` [Example 20, 2-(4-chloro-2-methoxyphenyl)imidazo[4,5-c]pyridine hydrochloride] the activity at 100 µM was 146% and the activity at 10 µM was 147%.

With `COc1c(C)cc(-c2nc3cnccc3[nH]2)cc1C` [Example 21, 2-(3,5-dimethyl-4-methoxyphenyl)imidazo[4,5-c]pyridine hydrochloride] the activity at 100 µM was 215% and the activity at 10 µM was 127%.

Molecule `COc1ccc(-c2nc3cnccc3[nH]2)c(OC)c1OC` [Example 22, 2-(2,3,4-trimethoxyphenyl)imidazo[4,5-c]pyridine hydrochloride] has an activity at 100 µM of 221% and an activity at 10 µM of 117%.

For `Cc1ccc(-c2nc3cnccc3[nH]2)cc1` [Example 25, 2-(4-methylphenyl)imidazo[4,5-c]pyridine hydrochloride], the activity at 100 µM was 130% and the activity at 10 µM was 95%.

`CCOc1cc(OC)ccc1-c1nc2cnccc2[nH]1` [Example 28, 2-(2-ethoxy-4-methoxyphenyl)imidazo[4,5-c]pyridine] showed an activity at 100 µM of 130% and an activity at 10 µM of 108%.

In the case of `CCCCOc1cc(OC)ccc1-c1nc2cnccc2[nH]1` [Example 30, 2-(2-n-butoxy-4-methoxyphenyl)imidazo[4,5-c]pyridine], the activity at 100 µM is reported as 140% and the activity at 10 µM is reported as 100%.

With `COc1ccc(OC)c(-c2nc3cnccc3[nH]2)c1` [Example 31, 2-(2,5-dimethoxyphenyl)imidazo[4,5-c]pyridine hydrochloride] the activity at 100 µM was 194% and the activity at 10 µM was 110%.

For `COc1cc(OC)cc(-c2nc3cnccc3[nH]2)c1` [Example 32, 2-(3,5-dimethoxyphenyl)imidazo[4,5-c]pyridine], the activity at 100 µM was 179% and the activity at 10 µM was 115%.

Molecule `COc1cccc(OC)c1-c1nc2cnccc2[nH]1` [Example 33, 2-(2,6-dimethoxyphenyl)imidazo[4,5-c]pyridine hydrochloride] has an activity at 100 µM of 184% and an activity at 10 µM of 88%.

`COc1cc(OC)c(-c2nc3cnccc3[nH]2)c(OC)c1` [Example 34, 2-(2,4,6-trimethoxyphenyl)imidazo[4,5-c]pyridine] was tested, and the activity at 100 µM was 137% and the activity at 10 µM was 103%.

`CCCCCOc1cc(OC)ccc1-c1nc2cnccc2[nH]1` [Example 35, 2-(2-n-pentoxy-4-methoxyphenyl)imidazo[4,5-c]pyridine hydrochloride] was tested, and the activity at 100 µM was 81% and the activity at 10 µM was 105%.

`COCCCOc1cc(OC)ccc1-c1nc2cnccc2[nH]1` [Example 36, 2-[2-(γ-methoxypropoxy)-4-methoxyphenyl]imidazo[4,5-c]pyridine] gave an activity at 100 µM of 147% and an activity at 10 µM of 100%.

In the case of `COCCOc1cc(OC)ccc1-c1nc2cnccc2[nH]1` [Example 37, 2-[2-(β-methoxyethoxy)-4-methoxyphenyl]imidazo[4,5-c]pyridine], the activity at 100 µM is reported as 116% and the activity at 10 µM is reported as 109%.

`COc1ccc(-c2nc3cnccc3[nH]2)c(OCCSc2ccccc2)c1` [Example 38, 2-[2-(β-phenylmercaptoethoxy)-4-methoxyphenyl]imidazo[4,5-c]pyridine] was tested, and the activity at 100 µM was 109% and the activity at 10 µM was 103%.

`COc1cc(OC)c(-c2nc3cnccc3[nH]2)cc1OC` [Example 40, 2-(2,4,5-trimethoxyphenyl)imidazo[4,5-c]pyridine hydrochloride] showed an activity at 100 µM of 129% and an activity at 10 µM of 108%.

With `CCSc1ccc(-c2nc3cnccc3[nH]2)c(OC)c1` [Example 41, 2-(2-methoxy-4-ethylmercaptophenyl)imidazo[4,5-c]pyridine hydrochloride] the activity at 100 µM was 196% and the activity at 10 µM was 136%.

`CCOc1cc(SC)ccc1-c1nc2cnccc2[nH]1` [Example 42, 2-(2-ethoxy-4-methylmercaptophenyl)imidazo[4,5-c]pyridine] gave an activity at 100 µM of 149% and an activity at 10 µM of 122%.

For `COc1ccc(-c2nc3cnccc3[nH]2)c(OCCCSC)c1` [Example 44, 2-[2-(γ-methylmercaptopropoxy)-4-methoxyphenyl]imidazo[4,5-c]pyridine], the activity at 100 µM was 129% and the activity at 10 µM was 118%.

Work on `Cc1ccc(-c2nc3cnccc3[nH]2)cc1C` [Example 46, 2-(3,4-dimethylphenyl)imidazo[4,5-c]pyridine hydrochloride] yielded an activity at 100 µM of 225% and an activity at 10 µM of 133%.

`Clc1cccc(-c2nc3cnccc3[nH]2)c1` [Example 48, 2-(3-chlorophenyl)imidazo[4,5-c]pyridine] was tested, and the activity at 100 µM was 176% and the activity at 10 µM was 107%.

With `Clc1ccc(-c2nc3cnccc3[nH]2)cc1` [Example 49, 2-(4-chlorophenyl)imidazo[4,5-c]pyridine] the activity at 100 µM was 175% and the activity at 10 µM was 107%.

— US4758574A, “2-phenylimidazio (4,5-c) pyridines” (Eli Lilly and Company, priority 1986, dated 1988)
